Reference: patent US9428500B2, “Alpha-carbolines for the treatment of cancer” (UNIVERSITA' DEGLI STUDI DI MILANO—BICOCCA, priority 2012, dated 2016)
Where two headings read alike, the source gives them in different places.

Tests used:
[1] = tested on: parental untransformed BaF3 cells; experiment: Tritiated thymidine uptake cell proliferation assay, parental BaF3; assay type: cell-based; settings: Mus musculus, BaF3; 3H-thymidine uptake, 72 h, medium with IL-3
NPM/ALK+ Karpas299 cells = experiment: NPM/ALK+ Karpas299 tumour growth in SCID mice; assay type: in vivo; settings: oral gavage, 150 mg/kg twice per day, subcutaneous Karpas299 tumors in SCID mice
Protocol: The in vivo studies were approved by the Italian Ministry of Research and by the University internal ethical committee, and were run according to guidelines to reduce animal pain. Ten million NPM/ALK+ Karpas299 cells were injected subcutaneously in the right flank of SCID mice. Ten days later, when the tumors reached the size of 100 mm3 on average, mice were randomized either to control arm, receiving vehicle only (0.5% carboxymethylcellulose and 0.1% Tween80), or to treatment arm, receiving compound R533 by oral gavage, 150 mg/kg twice per day. Tumor size was measured bi-weekly by a caliper. General toxicity was assessed by monitoring weight loss, and by visual inspection for any sign of stress or suffering, including eye closure or bulging, ruffled/dull fur, reduced mobility, drowsiness, diarrhea.

[2] = biological target: wild-type ALK kinase (rALK) (Homo sapiens (Human), UniProt Q9UM73); experiment: ELISA-based in vitro kinase assay, wild-type ALK; assay type: biochemical; settings: recombinant ALK, 0.3 mM ATP; read-out: ELISA ALK WT IC50
wild-type ALK kinase (rALK), sequence (Q9UM73 19-1620): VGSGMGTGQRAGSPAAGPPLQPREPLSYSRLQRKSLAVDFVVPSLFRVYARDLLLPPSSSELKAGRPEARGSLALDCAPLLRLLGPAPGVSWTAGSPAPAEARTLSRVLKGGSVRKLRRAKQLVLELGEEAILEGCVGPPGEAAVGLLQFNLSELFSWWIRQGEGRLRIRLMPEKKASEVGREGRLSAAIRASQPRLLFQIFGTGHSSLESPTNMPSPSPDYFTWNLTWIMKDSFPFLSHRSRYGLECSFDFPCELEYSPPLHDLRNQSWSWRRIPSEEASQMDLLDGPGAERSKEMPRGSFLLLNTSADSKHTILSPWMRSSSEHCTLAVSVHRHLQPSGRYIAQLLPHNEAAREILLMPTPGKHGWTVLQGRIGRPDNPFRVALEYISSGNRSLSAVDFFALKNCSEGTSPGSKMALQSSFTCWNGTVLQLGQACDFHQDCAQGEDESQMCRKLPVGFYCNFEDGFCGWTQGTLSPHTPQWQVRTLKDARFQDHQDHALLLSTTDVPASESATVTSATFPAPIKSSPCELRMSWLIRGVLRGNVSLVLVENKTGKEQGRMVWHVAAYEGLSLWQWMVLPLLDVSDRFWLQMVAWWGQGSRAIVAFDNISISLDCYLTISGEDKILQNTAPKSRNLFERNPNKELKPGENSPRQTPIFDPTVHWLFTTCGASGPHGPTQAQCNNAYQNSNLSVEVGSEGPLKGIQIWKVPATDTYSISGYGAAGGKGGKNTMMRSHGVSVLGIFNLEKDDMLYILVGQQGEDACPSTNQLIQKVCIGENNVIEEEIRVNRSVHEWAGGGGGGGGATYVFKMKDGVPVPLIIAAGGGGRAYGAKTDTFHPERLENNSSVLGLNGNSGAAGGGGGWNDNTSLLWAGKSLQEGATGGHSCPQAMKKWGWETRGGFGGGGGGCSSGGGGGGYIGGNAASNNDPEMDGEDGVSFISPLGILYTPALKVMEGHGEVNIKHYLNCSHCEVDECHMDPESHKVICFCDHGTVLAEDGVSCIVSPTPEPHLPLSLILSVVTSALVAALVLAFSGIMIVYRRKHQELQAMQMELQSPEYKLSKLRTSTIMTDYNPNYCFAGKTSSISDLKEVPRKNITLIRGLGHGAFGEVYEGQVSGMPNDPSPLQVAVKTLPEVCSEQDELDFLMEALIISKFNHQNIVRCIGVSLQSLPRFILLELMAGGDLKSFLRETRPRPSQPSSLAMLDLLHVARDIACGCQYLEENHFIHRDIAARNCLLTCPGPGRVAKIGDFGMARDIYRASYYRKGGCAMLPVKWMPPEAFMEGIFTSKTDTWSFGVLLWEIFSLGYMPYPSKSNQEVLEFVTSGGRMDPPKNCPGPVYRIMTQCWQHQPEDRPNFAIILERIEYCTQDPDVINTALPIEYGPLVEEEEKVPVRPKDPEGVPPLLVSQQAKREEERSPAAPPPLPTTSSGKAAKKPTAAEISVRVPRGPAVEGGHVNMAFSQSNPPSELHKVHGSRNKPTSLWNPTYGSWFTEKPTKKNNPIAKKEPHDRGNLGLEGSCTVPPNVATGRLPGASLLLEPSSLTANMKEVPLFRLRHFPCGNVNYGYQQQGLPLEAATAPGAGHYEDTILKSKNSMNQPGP
Protocol: Recombinant 3C protease was used to remove the GST tag. Purified ALK was used to screen inhibitors in the ELISA-based kinase assay, as follows: Nunc-Immuno 96-well plates were incubated overnight at 30° C. with coating solution containing 2 μg of a specific ALK peptide substrate ([…]) in PBS. Wells were then washed with 200 μL of wash buffer (PBS-Tween 0.05%) and incubated with 4% BSA in PBS for at least 2 h at 30° C. […] For inhibitor testing the reaction mix was preincubated with inhibitor or vehicle for 10 min at room temperature before transferring to the ELISA plate. After the reaction, the wells were washed 5 times with 200 uL of wash buffer. Phosphorylated peptide was detected using 100 μL/well of a mouse monoclonal anti-phosphotyrosine antibody (clone 4G10 UpstateBiotech Ltd) diluted 1:2000 in PBS+4% BSA. After 30 min incubation at room temperature the antibody was removed and wells were washed as described above. 100 μL of a secondary antibody (anti-mouse IgG, Horseradish Peroxidase linked whole antibody, Amersham Pharmacia Biotech) diluted 1:1000 in PBS+4% BSA was added to each well and the plate was incubated again for 30 min at room temperature before washing as above. The plate was developed using 100 μL/well TMB Substrate Solution (Pierce) and the reaction was stopped by adding an equal volume of 1M H2SO4. Finally, the absorbance was read at 450 nm using an ELISA plate reader (Bio-Rad).

[3] = tested on: BaF3 cells transformed with the oncogenic fusion protein NPM/ALK; experiment: cells; settings: read-out: BaF3 NPM/ALK WT IC50
[4] = tested on: BaF3 cells transformed with the oncogenic fusion protein NPM/ALK

| Compound | IC50 [1] | also measured |
| --- | --- | --- |
| CN1CCN(c2ccc(-c3ccc4[nH]c5nccc(-c6ccc(Cc7ccccc7)cc6)c5c4c3)cc2)CC1 [Example 16, 4-(4-Benzylphenyl)-6-[4-(4-methylpiperazin-1-yl)-phenyl]-9H-pyrido[2,3-b]indole] | 8700 nM | Tumor size (tumour growth curves) (NPM/ALK+ Karpas299 cells): remarkable effect |
| CN1CCN(c2ccc(-c3ccc4[nH]c5nccc(-c6ccc(N7CCN(C)CC7)cc6)c5c4c3)cc2)CC1 [Example 20, 4,6-Bis-[4-(4-methylpiperazin-1-yl)-phenyl]-9H-pyrido[2,3-b]indole] | 3600 nM | IC50 [2]: 10 µM; IC50 [3]: 520 nM; Selectivity Index (WT) [4]: 7 |
| CN1CCN(c2ccc(-c3ccc4[nH]c5nccc(C#Cc6ccccc6C(F)(F)F)c5c4c3)cc2)CC1 [Example 39, 6-[4-(4-Methylpiperazin-1-yl)-phenyl]-4-(2-trifluoromethyl-phenylethynyl)-9H-pyrido[2,3-b]indole] | 1200 nM |  |
| CN1CCN(c2ccc(-c3ccc4[nH]c5nccc(C#Cc6ccc(F)cc6)c5c4c3)cc2)CC1 [Example 40, 4-((4-Fluorophenyl)ethynyl)-6-[4-(4-methylpiperazin-1-yl)-phenyl]-9H-pyrido[2,3-b]indole] | 920 nM |  |
| CN1CCN(c2ccc(-c3ccc4[nH]c5nccc(C#Cc6ccccc6F)c5c4c3)cc2)CC1 [Example 41, 4-((2-Fluorophenyl)ethynyl)-6-[4-(4-methylpiperazin-1-yl)-phenyl]-9H-pyrido[2,3-b]indole] | 2500 nM |  |
| CN1CCN(c2ccc(-c3ccc4[nH]c5nccc(C#Cc6ccccc6Cl)c5c4c3)cc2)CC1 [Example 42, 4-((2-Chlorophenyl)ethynyl)-6-[4-(4-methylpiperazin-1-yl)-phenyl]-9H-pyrido[2,3-b]indole] | 2100 nM |  |
| CC(C)[Si](C#Cc1ccnc2[nH]c3ccc(-c4ccc(N5CCN(C)CC5)cc4)cc3c12)(C(C)C)C(C)C [Example 43, 6-(4-(4-Methylpiperazin-1-yl)phenyl)-4-((triisopropylsilyl)ethynyl)-9H-pyrido[2,3-b]indole] | 3400 nM |  |
| C#Cc1ccnc2[nH]c3ccc(-c4ccc(N5CCN(C)CC5)cc4)cc3c12 [Example 44, 4-Ethynyl-6-(4-(4-methylpiperazin-1-yl)phenyl)-9H-pyrido[2,3-b]indole] | 350 nM | IC50 [2]: 29 µM; IC50 [3]: 170 nM; Selectivity Index (WT) [4]: 2 |
| COc1ccccc1C#Cc1ccnc2c1c1cc(-c3ccc(N4CCN(C)CC4)cc3)ccc1n2C [Example 45, 4-(2-Methoxyphenylethynyl)-9-methyl-6-[4-(4-methylpiperazin-1-yl)-phenyl]-9H-pyrido[2,3-b]indole] | 2100 nM | IC50 [2]: 3.8 µM; IC50 [3]: 1100 nM; Selectivity Index (WT) ([4]; BaF3 parental vs NPM/ALK WT): 2 |
| COc1ccc(Sc2ccnc3[nH]c4ccc(-c5ccc(N6CCN(C)CC6)cc5)cc4c23)cc1 [Example 46, 4-(4-Methoxy-phenylsulfanyl)-6-[4-(4-methyl-piperazin-1-yl)-phenyl]-9H-pyrido[2,3-b]indole] |  | IC50 [2]: 5.7 µM |
| Cc1ccc(Cn2cc(-c3ccnc4[nH]c5ccc(-c6ccc(N7CCN(C)CC7)cc6)cc5c34)nn2)cc1 [Example 47, 4-(1-(4-methylbenzyl)-1H-1,2,3-triazol-4-yl)-6-(4-(4-methylpiperazin-1-yl)phenyl)-9H-pyrido[2,3-b]indole] |  | IC50 [2]: 6.8 µM |
| CN1CCN(c2ccc(-c3ccc4[nH]c5nccc(-c6ccc(Oc7ccccc7)cc6)c5c4c3)cc2)CC1 [Example 48, 6-(4-(4-methylpiperazin-1-yl)phenyl)-4-(4-phenoxyphenyl)-9H-pyrido[2,3-b]indole] | 2100 nM |  |
| CN1CCN(c2ccc(-c3ccc4[nH]c5nccc(-c6ccc(-c7ccc(F)cc7)nc6)c5c4c3)cc2)CC1 [Example 49, 4-(6-(4-fluorophenyl)pyridin-3-yl)-6-(4-(4-methylpiperazin-1-yl)phenyl)-9H-pyrido[2,3-b]indole] | 3200 nM |  |
| COc1cc(-c2ccnc3[nH]c4ccc(-c5ccc(N6CCN(C)CC6)cc5)cc4c23)c(OC)cc1C(=O)c1ccccc1 [Example 50, (2,5-dimethoxy-4-(6-(4-(4-methylpiperazin-1-yl)phenyl)-9H-pyrido[2,3-b]indol-4-yl)phenyl)(phenyl)methanone] | 1100 nM |  |
| COc1cc(C(=O)c2ccccc2)c(O)cc1-c1ccnc2[nH]c3ccc(-c4ccc(N5CCN(C)CC5)cc4)cc3c12 [Example 51, (2-hydroxy-5-methoxy-4-(6-(4-(4-methylpiperazin-1-yl)phenyl)-9H-pyrido[2,3-b]indol-4-yl)phenyl)(phenyl)methanone] | 720 nM |  |
| COc1cc(-c2ccnc3[nH]c4ccc(-c5ccc(N6CCN(C)CC6)cc5)cc4c23)c(OC)cc1Cc1ccccc1 [Example 52, 4-(4-benzyl-2,5-dimethoxyphenyl)-6-(4-(4-methylpiperazin-1-yl)phenyl)-9H-pyrido[2,3-b]indole] | 810 nM |  |
| COc1cc(Cc2ccccc2)c(O)cc1-c1ccnc2[nH]c3ccc(-c4ccc(N5CCN(C)CC5)cc4)cc3c12 [Example 53, 2-benzyl-4-methoxy-5-(6-(4-(4-methylpiperazin-1-yl)phenyl)-9H-pyrido[2,3-b]indol-4-yl)phenol] | 1800 nM |  |
| CN1CCN(c2ccc(-c3ccc4[nH]c5nccc(-c6ccc(Cc7ccccc7)cc6C(F)(F)F)c5c4c3)cc2)CC1 [Example 55, 4-(4-benzyl-2-(trifluoromethyl)phenyl)-6-(4-(4-methylpiperazin-1-yl)phenyl)-9H-pyrido[2,3-b]indole] | 5100 nM |  |
| COc1cc(C(O)c2ccccc2)c(OC)cc1-c1ccnc2[nH]c3ccc(-c4ccc(N5CCN(C)CC5)cc4)cc3c12 (stereo not shown) [Example 57, (2,5-dimethoxy-4-(6-(4-(4-methylpiperazin-1-yl)phenyl)-9H-pyrido[2,3-b]indol-4-yl)phenyl)(phenyl)methanol] | 790 nM |  |
| CN1CCN(c2ccc(-c3ccc4[nH]c5nccc(N6CCC(Cc7ccccc7)CC6)c5c4c3)cc2)CC1 [Example 58, 4-(4-benzylpiperidin-1-yl)-6-(4-(4-methylpiperazin-1-yl)phenyl)-9H-pyrido[2,3-b]indole] | 3300 nM |  |
| CN1CCN(c2ccc(-c3ccc4[nH]c5nccc(N6CCN(Cc7ccccc7)CC6)c5c4c3)cc2)CC1 [Example 59, 4-(4-benzylpiperazin-1-yl)-6-(4-(4-methylpiperazin-1-yl)phenyl)-9H-pyrido[2,3-b]indole] | 830 nM |  |
